# From patent US7763617B2, “Pyrazolopyridine-4-yl pyridazinone derivatives and addition salts thereof, and PDE inhibitors comprising the same derivatives or salts as active ingredient” (Kyorin Pharmaceutical Co., Ltd., priority 2005, dated 2010)
# Read-outs that look alike come from different tables or passages of the source.
# What was measured:
# [1] = target: T1, PDE10A1 (Homo sapiens, UniProt Q9Y233); assay: Inhibition of phosphodiesterase activity, [3H]-cAMP hydrolysis, recombinant PDE10A1; format: biochemical; conditions: human recombinant PDE10A1, cAMP 0.2 μmol/L; read-out: IC50(μmol/L) PDE10
# T1 construct: made in house; host or cells: Sf9 insect cells (baculovirus, Bac-to-Bac)
# T1 sequence (Q9Y233 1-779 isoform Q9Y233-1): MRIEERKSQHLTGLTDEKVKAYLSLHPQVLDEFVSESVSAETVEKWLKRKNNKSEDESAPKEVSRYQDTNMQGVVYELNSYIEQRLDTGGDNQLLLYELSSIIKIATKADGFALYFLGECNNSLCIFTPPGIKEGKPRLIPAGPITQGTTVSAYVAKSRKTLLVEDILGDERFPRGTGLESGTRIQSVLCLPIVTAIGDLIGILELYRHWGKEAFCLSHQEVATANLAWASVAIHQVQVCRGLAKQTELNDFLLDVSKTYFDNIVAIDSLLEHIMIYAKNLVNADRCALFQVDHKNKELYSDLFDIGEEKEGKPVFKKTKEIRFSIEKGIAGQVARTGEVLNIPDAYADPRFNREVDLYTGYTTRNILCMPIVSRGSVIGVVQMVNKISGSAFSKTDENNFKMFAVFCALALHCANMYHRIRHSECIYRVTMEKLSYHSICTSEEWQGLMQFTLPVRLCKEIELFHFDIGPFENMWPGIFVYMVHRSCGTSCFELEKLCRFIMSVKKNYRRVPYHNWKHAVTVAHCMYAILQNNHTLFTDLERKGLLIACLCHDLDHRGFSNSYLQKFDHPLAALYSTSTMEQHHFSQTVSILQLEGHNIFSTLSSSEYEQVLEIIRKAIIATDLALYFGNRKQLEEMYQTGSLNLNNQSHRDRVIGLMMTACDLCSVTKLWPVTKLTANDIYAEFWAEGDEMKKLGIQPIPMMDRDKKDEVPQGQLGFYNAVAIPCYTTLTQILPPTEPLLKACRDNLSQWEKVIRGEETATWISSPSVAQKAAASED
# Experimental: (§1) RT-PCR was performed to isolate cDNA fragments of PDE3A catalytic domain (indicated as “cat,” hereinafter), PDE4Bcat, PDE5Acat and PDE10A1 from human RNA. Using Gateway system (Invitrogen) and Bac-to-Bac (registered trademark) Baculovirus Expression system (Invitrogen), the isolated cDNA fragments were transfected into Sf9 insect cells for expression of the PDE proteins. The recombinant PDE3Acat, PDE4Bcat, PDE5Acat and PDE10A1 proteins were isolated from culture supernatant or cell extracts of Sf9 cells expressed high levels of these proteins by ion-exchange chromatography and used for the following experiments.
# (§2) 4 mmol/L solution of each test compound was serially diluted 4-fold with 15% DMSO solution to prepare the solutions with concentrations of 15 nmol/L to 4 mmol/L (final concentrations=1.5 nmol/L-400 μmol/L). 10 μL of each test compound solution was added to each well of 96 plate with 10 μL of [^3H]-cAMP or [^3H]-cGMP solution, diluted with a buffer (40 mmol/L Tris-HCl (pH 7.4), 10 mmol/L MgCl2) to the concentration shown in Table 20 and 40 μL of each of the human recombinant PDE proteins in units shown in Table 20. The plate was incubated at 30° C. for 20 min, and then at 65° C. for 2 min. Subsequently, 25 μL of 1 mg/mL 5′-nucleotidase (Crotalus atrox venom, Sigma) was added to each well and the plate was incubated at 30° C. for 10 min. 200 μL of Dowex solution (300 mg/mL Dowex 1×8-400 (Sigma Aldrich), 33% ethanol) was then added to each well and the plate was shaken at 4° C. for 20 min. Subsequently, 200 μL of MicroScint 20 (Packard) was added to each well and the radioactivity of each sample was measured by a scintillation counter (Topcount, Packard) IC50 was calculated by GraphPad Prism v3.03 (GraphPad Software).
# [2] = target: PDE5Acat (Homo sapiens, UniProt O76074); assay: Inhibition of phosphodiesterase activity, [3H]-cGMP hydrolysis, recombinant PDE5Acat; format: biochemical; conditions: cGMP 2 μmol/L, read-out: IC50(μmol/L) PDE5
# Experimental: as §1, §2
# [3] = target: T2, PDE4Bcat (Homo sapiens, UniProt Q07343); assay: Inhibition of phosphodiesterase activity, [3H]-cAMP hydrolysis, recombinant PDE4Bcat; format: biochemical; conditions: cAMP 2 μmol/L, read-out: IC50(μmol/L) PDE4
# T2 construct: catalytic domain (indicated as “cat,” hereinafter), PDE4Bcat; made in house; host or cells: Sf9 insect cells (baculovirus, Bac-to-Bac)
# T2 sequence (Q07343 330-659 limits assumed): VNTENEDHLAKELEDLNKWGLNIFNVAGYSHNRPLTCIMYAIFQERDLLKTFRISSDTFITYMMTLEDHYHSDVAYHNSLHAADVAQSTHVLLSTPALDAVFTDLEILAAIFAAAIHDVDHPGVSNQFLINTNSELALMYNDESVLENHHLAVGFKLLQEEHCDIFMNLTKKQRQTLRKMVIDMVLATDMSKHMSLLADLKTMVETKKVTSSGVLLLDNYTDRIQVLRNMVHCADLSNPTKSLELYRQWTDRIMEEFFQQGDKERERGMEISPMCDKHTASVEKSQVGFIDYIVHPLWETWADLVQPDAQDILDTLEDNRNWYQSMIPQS
# Experimental: as §1, §2
# [4] = test system: histamine-induced bronchoconstriction; assay: Histamine-induced bronchoconstriction in guinea pigs; format: in vivo, guinea pig; conditions: Cavia porcellus, iv, 0.5 min, 30 seconds after administration, histamine 12.5 μg/kg i.v.; for inhibition in vivo at 1 mg/kg: test compound 1 mg/kg i.v.; for inhibition in vivo at 0.1 mg/kg: values in brackets: test compound 0.1 mg/kg, i.v.
# Experimental: Guinea pigs were anesthetized with pentobarbital (30 mg/kg, i.p.). A cannula for IV administeration, a cannula for collecting blood and measurement of blood pressure and a trachea cannula were inserted into the left exterior jugular vein, right interior carotid artery and trachea, respectively. The animals were placed under artificial respiration at 60 times/min and 10 mL/kg/stroke. The airflow through the branch of the tracheal cannula was measured by a bronchospasm transducer (Ugo-Basile) and recorded on a computer via Power Lab (ADInstruments Japan). The animals were immobilized with gallamine (10 mg/kg, i.v.), then administered histamine at 10-minute intervals (12.5 μg/kg, i.v.). […] To examine the inhibitory activity of test compound, the histamine-induced bronchoconstriction was measured after 30 seconds of drug administration. The bronchoconstriction was recorded as the change of the airflow: The results were shown by percentages of the maximum histamine-induced bronchoconstriction. Each test compound was prepared as a 10 mg/mL solution in DMSO. Gallamine was prepared as a 10 mg/mL solution in physiological saline. Histamine was prepared as a 1 mg/mL solution in physiological saline, which was diluted with physiological saline to 62.5 μg/mL for use.
# [5] = target: T3, PDE3A catalytic domain (PDE3Acat) (Homo sapiens, UniProt Q14432); assay: Inhibition of phosphodiesterase activity, [3H]-cAMP hydrolysis, recombinant PDE3Acat; format: biochemical; conditions: cAMP 2 μmol/L
# T3 construct: cDNA fragments of PDE3A catalytic domain (indicated as “cat,” hereinafter); made in house; host or cells: Sf9 insect cells (baculovirus, Bac-to-Bac)
# T3 sequence (Q14432 674-1093 limits assumed): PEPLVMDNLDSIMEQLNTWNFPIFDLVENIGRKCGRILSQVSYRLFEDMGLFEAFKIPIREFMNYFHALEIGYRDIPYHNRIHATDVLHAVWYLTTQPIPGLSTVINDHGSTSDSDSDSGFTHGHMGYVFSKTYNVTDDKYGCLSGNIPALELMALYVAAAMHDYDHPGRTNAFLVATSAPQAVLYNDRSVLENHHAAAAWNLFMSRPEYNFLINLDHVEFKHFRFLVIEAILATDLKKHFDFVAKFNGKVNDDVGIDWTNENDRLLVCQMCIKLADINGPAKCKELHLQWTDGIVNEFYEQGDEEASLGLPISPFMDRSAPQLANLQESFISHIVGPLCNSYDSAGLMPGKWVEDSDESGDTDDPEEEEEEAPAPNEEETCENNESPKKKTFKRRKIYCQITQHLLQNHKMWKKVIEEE
# Experimental: as §1, §2
# [6] = test system: isolated guinea pig tracheal smooth muscles; assay: Relaxant effect on histamine-induced contraction of isolated guinea pig tracheal smooth muscles; conditions: Cavia porcellus; histamine 10^-5 mol/L contraction, relaxation as % of maximum response to papaverine 10^-4 mol/L; read-out: IC50(μmol/L), concentration required to 50% relaxation
# Experimental: Guinea pigs were exsanguinated and the trachea was immediately isolated and cut into 2 to 3 cartilage ring segments to prepare tracheal ring preparations. The tracheal rings were suspended in 10 mL of Tyrode's solution bubbled with a gaseous mixture of 95% O2+5% CO2 at 37° C. The composition of the Tyrode's solution (mM) was as follows: NaCl 136.9, KCl 2.7, CaCl2 1.8, MgCl2 1.0, NaH2PO4 0.4, NaHCO3 11.9 and Gucose 5.6. The contractile response was measured by an isometric transducer (UM-203, KISHIMOTO) and recorded on a recorder ([…] SERVOCORDER SR6221). After about 1 hour incubation with 1.5 g of resting tention, histamine (10^−5 mol/L) was added to induce the contractile response. After confirming the response, the preparations were washed with Tyrode's solution (10 mL×3). Then indomethacin (10^−5 mol/L) was applied and the preparations were equilibrated for at least 30 min under 1.5 g tension. Subsequently, histamine (10^−5 mol/L) was applied. After the contraction reached a steady state, each compound was added in a cumulative manner (10^−8 mol/L-3×10^−5 mol/L). Each compound was prepared as a 10^−1 mol/L solution in DMSO, which was diluted with distilled water for use. After addition of test compounds, papaverine (10^−4 mol/L) was added to determine the maximum relaxation of the preparation. Relaxant response of test compounds were expressed as a percentage of the maximum response to papaverine. IC50 was defined as a concentration of the compound required to 50% relaxation. DMSO was used as a control.
# [7] = human recombinant PDE3Acat, read-out: IC50(μmol/L) PDE3
# [8] = IC50(μmol/L) PDE3, human recombinant PDE3Acat
SMILES,IC50 [1] [µmol/L],IC50 [2] [µmol/L],IC50 [3] [µmol/L],inhibition in vivo at 1 mg/kg [4] [%],"IC50 [5, 7] [µmol/L]",inhibition in vivo at 0.1 mg/kg [4] [%],"IC50 [5, 8] [µmol/L]",IC50 [6] [µmol/L]
CCc1cc2c(C3=NNC(=O)CC3)cc(Cl)cn2n1 [Example 202],1 to 10,> 10,> 10,≥ 90,> 10,–,–,–
"CCc1cc2c(C3=NNC(=O)CC3C)ccc(OC)n2n1 (single isomer, unassigned; (+)) [Example 315, (+)-6-(2-ethyl-7-methoxy-pyrazolo[1,5-a]pyridine-4-yl)-5-methyl-4,5-dihydro-3-(2H)-pyridazinone]",1 to 10,> 10,1 to 10,–,–,≥ 90,1 to 10,–
"CCc1cc2c(C3=NNC(=O)CC3C)cc(Cl)cn2n1 (single isomer, unassigned; (+)) [Example 313, (+)-6-(6-chloro-2-ethyl-pyrazolo[1,5-a]pyridine-4-yl)-5-methyl-4,5-dihydro-3-(2H)-pyridazinone]",0.1 to 1,> 10,1 to 10,≥ 90,1 to 10,–,–,0.5
"COC(=O)c1c(C(C)C)nn2c(OC)ccc(-c3ccc(=O)n(Cc4ccccc4)n3)c12 [Example 266, 2-benzyl-6-(7-methoxy-3-methoxycarbonyl-2-isopropyl-pyrazolo[1,5-a]pyridine-4-yl)-3-(2H)-pyridazinone]",> 10,> 10,1 to 10,–,> 10,–,–,–
CCc1cc2c(-c3ccc(=O)[nH]n3)cccn2n1 [Example 304],> 10,> 10,> 10,≥ 90,1 to 10,–,–,0.89
"CCc1cc2c(C3=NNC(=O)CC3C)ccc(OC)n2n1 (single isomer, unassigned; (-)) [Example 316, (−)-6-(2-ethyl-7-methoxy-pyrazolo[1,5-a]pyridine-4-yl)-5-methyl-4,5-dihydro-3-(2H)-pyridazinone]",> 10,> 10,< 1,–,–,–,> 10,0.676
COc1ccc(-c2ccc(=O)n(Cc3cccnc3)n2)c2cc(C(C)C)nn12 [Example 273],1 to 10,> 10,1 to 10,–,> 10,–,–,–
"COc1ccc(C2=NNC(=O)CC2C)c2cc(C(F)(F)F)nn12 (centres unmarked) [205(211), 6-(7-methoxy-2-trifluoromethyl-pyrazolo[1,5-a]pyridine-4-yl)-4,5-dihydro-5-methyl-3-(2H)-pyridazinone]",1 to 10,> 10,< 1,–,1 to 10,≥ 90,–,0.3
"CCc1cc2c(C3=NNC(=O)CC3)ccc(OC)n2n1 [Example 210, 6-(2-ethyl-7-methoxy-pyrazolo[1,5-a]pyridine-4-yl)-4,5-dihydro-3-(2H)-pyridazinone]",> 10,> 10,1 to 10,≥ 90,> 10,–,–,–
COc1ccc(C2=NNC(=O)C(C)C2)c2cc(C(C)C)nn12 (centres unmarked) [Example 283],> 10,> 10,0.1 to 1,–,> 10,–,–,–
"COc1ccc(-c2cc(C)c(=O)[nH]n2)c2cc(C(C)C)nn12 [Example 278, 6-(7-methoxy-2-isopropyl-pyrazolo[1,5-a]pyridine-4-yl)-4-methyl-3-(2H)-pyridazinone]",> 10,> 10,0.1 to 1,–,> 10,–,–,–
COc1ccc(C2=NN(Cc3cccnc3)C(=O)CC2)c2cc(C(C)C)nn12 [Example 285],1 to 10,> 10,1 to 10,–,> 10,–,–,–
COc1ccc(-c2ccc(=O)n(Cc3ccccc3)n2)c2cc(C(C)C)nn12 [Example 272],0.1 to 1,–,–,–,–,–,–,–
COc1ccc(C2=NNC(=O)CC2C)c2cc(C(C)C)nn12 (centres unmarked) [Example 282],1 to 10,> 10,0.1 to 1,≥ 90,1 to 10,–,–,–
"COc1ccc(-c2ccc(=O)n(Cc3ccccc3)n2)c2c(C(=O)O)c(C(C)C)nn12 [Example 267, 2-benzyl-6-(3-carboxy-7-methoxy-2-isopropyl-pyrazolo[1,5-a]pyridine-4-yl)-3-(2H)-pyridazinone]",> 10,> 10,1 to 10,–,> 10,–,–,–
COc1ccc(C2=NN(Cc3ccccc3)C(=O)CC2)c2cc(C(C)C)nn12 [Example 284],1 to 10,–,–,–,–,–,–,–
CCc1cc2c(C3=NNC(=O)CC3C)ccc(NC)n2n1 (centres unmarked) [Example 225],–,–,< 1,–,1 to 10,80 to 90,–,–
COCc1cc2c(C3=NNC(=O)CC3C)ccc(OC)n2n1 (centres unmarked) [Example 220],–,–,0.1 to 1,–,1 to 10,≥ 90,–,–
COc1ccc(C2=NNC(=O)CC2C)c2cc(C3CC3)nn12 (centres unmarked) [Example 218],–,–,0.1 to 1,–,1 to 10,≥ 90,–,–
"CCc1cc2c(C3=NN(Cc4cccnc4)C(=O)CC3C)cc(Cl)cn2n1 (centres unmarked) [Example 312, 6-(6-chloro-2-ethyl-pyrazolo[1,5-a]pyridine-4-yl)-4,5-dihydro-5-methyl-2-(pyridine-3-ylmethyl)-3-(2H)-pyridazinone]",> 10,> 10,1 to 10,–,> 10,–,–,–
CCc1cc2c(-c3ccc(=O)[nH]n3)ccc(OC)n2n1 [Example 306],> 10,> 10,1 to 10,≥ 90,1 to 10,–,–,–
"CCc1cc2c(C3=NNC(=O)CC3C)cc(Cl)cn2n1 (single isomer, unassigned; (-)) [Example 314, (−)-6-(6-chloro-2-ethyl-pyrazolo[1,5-a]pyridine-4-yl)-5-methyl-4,5-dihydro-3-(2H)-pyridazinone]",> 10,> 10,0.1 to 1,–,> 10,80 to 90,–,–
